According to patent publication US20190292174A1, “MICROBIOCIDAL OXADIAZOLE DERIVATIVES” (SYNGENTA PARTICIPATIONS AG, priority 2016, published 2019):

Tests used:
[1] = system: Puccinia recondita f. sp. tritici; test: Puccinia recondita f. sp. tritici / wheat / leaf disc preventative (brown rust); format: in vivo; conditions: foliar, wheat leaf segments cv. Kanzler, preventative (inoculated 1 day after application), compared to untreated control
Description: Leaf disks or leaf segments of various plant species are cut from plants grown in a greenhouse. The cut leaf disks or segments are placed in multiwell plates (24-well format) onto water agar. The leaf disks are sprayed with a test solution before (preventative) or after (curative) inoculation. Compounds to be tested are prepared as DMSO solutions (max. 10 mg/ml) which are diluted to the appropriate concentration with 0.025% Tween20 just before spraying. The inoculated leaf disks or segments are incubated under defined conditions (temperature, relative humidity, light, etc.) according to the respective test system. A single evaluation of disease level is carried out 3 to 14 days after inoculation, depending on the pathosystem. Percent disease control relative to the untreated check leaf disks or segments is then calculated. Wheat leaf segments cv. Kanzler are placed on agar in multiwell plates (24-well format) and sprayed with the formulated test compound diluted in water. The leaf disks are inoculated with a spore suspension of the fungus 1 day after application. The inoculated leaf segments are incubated at 19° C. and 75% rh under a light regime of 12 h light/12 h darkness in a climate cabinet and the activity of a compound is assessed as percent disease control compared to untreated when an appropriate level of disease damage appears in untreated check leaf segments (7-9 days after application).

[2] = system: Glomerella lagenarium (Colletotrichum lagenarium); test: Glomerella lagenarium (Colletotrichum lagenarium) liquid culture / cucumber / preventative (anthracnose); format: cell-based; conditions: Colletotrichum orbiculare, liquid culture (PDB), growth inhibition measured photometrically 3-4 days after application, compared to untreated control
Description: […] fragments or conidia suspensions of a fungus prepared either freshly from liquid cultures of the fungus or from cryogenic storage, are directly mixed into nutrient broth. DMSO solutions of the test compound (max. 10 mg/ml) are diluted with 0.025% Tween20 by a factor of 50 and 10 μl of this solution is pipetted into a microtiter plate (96-well format). The nutrient broth containing the fungal spores/mycelia fragments is then added to give an end concentration of the tested compound. The test plates are incubated in the dark at 24° C., and 96% relative humidity. The inhibition of fungal growth is determined photometrically after 2 to 7 days, depending on the pathosystem, and percent antifungal activity relative to the untreated check is calculated. Conidia of the fungus from cryogenic storage are directly mixed into nutrient broth (PDB potato dextrose broth). Alter placing a (DMSO) solution of test compound into a microtiter plate (96-well format), the nutrient broth containing the fungal spores is added. The test plates are incubated at 24° C., and the inhibition of growth is measured photometrically 3-4 days after application.

[3] = system: Puccinia recondita f. sp. tritici; test: Puccinia recondita f. sp. tritici / wheat / leaf disc curative (brown rust); format: in vivo; conditions: foliar, 24 h, wheat leaf segments cv. Kanzler, curative (applied 1 day after inoculation), compared to untreated control, read-out: control of Puccinia recondita f. sp. tritic
Description: Leaf disks or leaf segments of various plant species are cut from plants grown in a greenhouse. The cut leaf disks or segments are placed in multiwell plates (24-well format) onto water agar. The leaf disks are sprayed with a test solution before (preventative) or after (curative) inoculation. Compounds to be tested are prepared as DMSO solutions (max. 10 mg/ml) which are diluted to the appropriate concentration with 0.025% Tween20 just before spraying. The inoculated leaf disks or segments are incubated under defined conditions (temperature, relative humidity, light, etc.) according to the respective test system. A single evaluation of disease level is carried out 3 to 14 days after inoculation, depending on the pathosystem. Percent disease control relative to the untreated check leaf disks or segments is then calculated. Wheat leaf segments cv. Kanzler are placed on agar in multiwell plates (24-well format). The leaf segments are inoculated with a spore suspension of the fungus. Plates are stored in darkness at 19° C., and 75% rh. The formulated test compound diluted in water is applied 1 day after inoculation. The leaf segments are incubated at 19° C., and 75% rh under a light regime of 12 h light/12 h darkness in a climate cabinet and the activity of a compound is assessed as percent disease control compared to untreated when an appropriate level of disease damage appears in untreated check leaf segments (6-8 days after application).

melting point [°C]	Structure (SMILES)	pest or weed control at 200 ppm [1] [%]	inhibition of growth at 20 ppm [2] [%]	pest or weed control at 200 ppm [3] [%]
167 to 170	O=C(NN1CCc2ccccc21)c1ccc(-c2noc(C(F)(F)F)n2)cc1 [Compound 1.10, N-indolin-1-yl-4-[5-(trifluoromethyl)-1,2,4-oxadiazol-3-yl]benzamide]	≥ 80	≥ 80	–
207 to 209	O=C(Cc1ccc(-c2noc(C(F)(F)F)n2)c(F)c1)NN1CCOCC1 [Compound 1.31, 2-[3-fluoro-4-[5-(trifluoromethyl)-1,2,4-oxadiazol-3-yl]phenyl]-N-morpholino-acetamide]	–	–	≥ 80
159 to 162	Cc1cc(-c2noc(C(F)(F)F)n2)cnc1C(=O)NN1CCCCC1=O [Compound 1.13, 3-methyl-N-(2-oxo-1-piperidyl)-5-[5-(trifluoromethyl)-1,2,4-oxadiazol-3-yl]pyridine-2-carboxamide]	–	–	–
115.3 to 118.6	NN(C(=O)c1ccccc1)C(=O)c1ccc(-c2noc(C(F)(F)F)n2)cc1 [Compound 1.5, N-benzoyl-4-[5-(trifluoromethyl)-1,2,4-oxadiazol-3-yl]benzohydrazide]	≥ 80	≥ 80	–
201 to 203	O=C(Cc1ccc(-c2noc(C(F)(F)F)n2)cc1F)NN1CCOCC1 [Compound 1.28, 2-[2-fluoro-4-[5-(trifluoromethyl)-1,2,4-oxadiazoi-3-yl]phenyl]-N-morpholino-acetamide]	–	≥ 80	≥ 80
163 to 165	CN(C)NC(=O)Cc1ccc(-c2noc(C(F)(F)F)n2)c(F)c1 [Compound 1.30, 2-[3-fluoro-4-[5-(trifluoromethyl)-1,2,4-oxadiazol-3-yl]phenyl]-N′,N′-dimethyl-acetohydrazide]	≥ 80	≥ 80	≥ 80
146 to 166	O=C(NN1CCOC1=O)c1ccc(-c2noc(C(F)(F)F)n2)c(F)c1 [Compound 1.25, 3-fluoro-N-(2-oxooxazolidin-3-yl)-4-[5-(trifluorormethyl)-1,2,4-oxadiazol-3-yl]benzamide]	≥ 80	≥ 80	≥ 80
205 to 209	O=C(NN1CCCCC1=O)c1c(F)cc(-c2noc(C(F)(F)F)n2)cc1F [Compound 1.12, 2,6-difluoro-N-(2-oxo-1-piperidyl)-4-[5-(trifluoromethyl)-1,2,4-oxadiazol-3-yl]benzamide]	–	≥ 80	–
161 to 163	O=C(Cc1ccc(-c2noc(C(F)(F)F)n2)c(F)c1)NN1CCCCC1=O [Compound 1.32, 2-[3-flouro-4-[5-(trifluoromethyl)-1,2,4-oxadiazol-3-yl]phenyl]-N-(2-oxo-1-piperidyl)acetamide]	≥ 80	≥ 80	≥ 80
188 to 190	O=C(Nn1ccc2ccccc21)c1ccc(-c2noc(C(F)(F)F)n2)cc1 [Compound 1.11, N-indol-1-yl-4-[5-(trifluoromethyl)-1,2,4-oxadiazol-3-yl]benzamide]	≥ 80	≥ 80	–
140 to 149	O=C(NNCCO)c1ccc(-c2noc(C(F)(F)F)n2)cc1 [Compound 1.18, N′-(2-hydroxyethyl)-4-[5-(trifluoromethyl)-1,2,4-oxadiazol-3-yl]benzohydrazide]	≥ 80	≥ 80	≥ 80
154 to 156	O=C(Cc1ccc(-c2noc(C(F)(F)F)n2)cc1F)NN1CCCCC1=O [Compound 1.29, 2-[2-fluoro-4-[5-(trifluoromethyl)-1,2,4-oxadiazol-3-yl]phenyl]-N-(2-oxo-1-piperidyl)acetamide]	≥ 80	≥ 80	≥ 80
